These results are taken from patent US20210161851A1, “COMBINATION THERAPY OF LYMPHOMA” (Deutsches Krebsforschungszentrum, priority 2019, published 2021).

The structures appear in SMILES notation.

The test system of one data set is primary CD4+ CTCL cells. Kind of data set: Cell death assay in primary CD4+ CTCL cells of Sezary patients. The format is cell-based, human. As to conditions: increasing concentrations, 24 h and 48 h. As to the method: (§1) Seven patients with Sezary syndrome (CTCL stage IV) diagnosed according to WHO-EORTC classification of CTCL and criteria of the international society of cutaneous lymphomas were included in the study. As controls, we investigated blood samples of healthy donors (n=7). Informed consent was obtained from all subjects before inclusion. The study was conducted according to ethical guidelines at our institution and the Helsinki Declaration and was approved by the ethics committee II of the University of Heidelberg.
(§2) ABT-199, ABT-263 and the mouse antibody against human Bcl-2 were obtained from Santa Cruz Biotechnology. DMF and monomethyl fumarate (MMF) were purchased from Sigma-Aldrich. Caspase-3 and cleaved-Caspase-3 antibodies came from Cell Signaling Technology, Ki-67 antibodies from Novacastra. Primary CD4+ T cells were isolated from heparinized whole blood and treated as indicated (Nicolay et al. (2016), Blood 128(6):805-815). Cell lines were obtained from ATCC (HH, J16) or generously donated by Drs. Gniadecki and Pless from Bispebjerg Hospital Copenhagen, Denmark and Dr. Kaltoft, Aarhus University Denmark (SeAx) or Prof. Eichmuiller from DKFZ Heidelberg, Germany (MyLa), and cultured as described (Nikolay et al, ibd.)
(§3) 1.3 Cell Death Assays, Quantitative Reverse Transcript (qRT) PCR, Western Blot were Performed as According to Standard Methods.

Data set [1] concerns primary healthy CD4+ T cells. Kind of data set: Cell death assay in primary CD4+ cells of healthy donors. The format is cell-based, human. As to conditions: different concentrations. Here is the method:
as §1, §2, §3

For the next data set, the system named is SeAx cells. Kind of data set: Cell death assay in CTCL cell line SeAx. The format is cell-based. As to conditions: different concentrations, 24 h.
Description: as §2, §3

A further data set relates to MyLa cells. As to the kind of experiment: Cell death assay in CTCL cell line MyLa. The format is cell-based.
Description: as §2, §3

The test system of another data set is J16 cells. As to the kind of experiment: Cell death assay in non-CTCL cell line J16. The format is cell-based. Conditions: different concentrations, 24 h.
Description: as §2, §3

For a further data set, the system named is HH cells. Kind of data set: Cell death assay in CTCL cell line HH. The format is cell-based. Conditions: different concentrations, 24 h.
Description: as §2, §3

For data set [2], the system named is caspase 3 cleavage in SeAx cells. As to the kind of experiment: Western blot of caspase 3 cleavage in SeAx cells. The format is cell-based. As to conditions: 100 or 1000 nM ABT-199, 50 μM DMF.
Description: as §2, §3

Data set [3] relates to caspase 3 cleavage in HH cells. Kind of data set: Western blot of caspase 3 cleavage in HH cells. As to conditions: 100 or 1000 nM ABT-199, 50 μM DMF. Type of data set: cell-based.
Description: as §2, §3
On the technique in general: A western blot detects proteins with antibodies after separation by electrophoresis.

In data set [4] the test system is Bax/Bak interaction in SeAx cells. Kind of data set: Proximity ligation assay (PLA) of Bax/Bak in SeAx cells. Type of data set: cell-based. Here is the method: (§4) In order to determine protein interactions a proximity ligation assay was performed with Duolink® PLA by Sigma-Aldrich as described before (Schroeder et al. (2017), Nat. Publ. Gr. October 2016:1-12). The rabbit antibody against Bak and the mouse antibody against Bax were obtained from Abcam.

Data set [5] relates to Bax/Bak interaction in HH cells. Kind of data set: Proximity ligation assay (PLA) of Bax/Bak in HH cells. Type of data set: cell-based. Here is the method: as §4
Data set [6] has as its system SeAx xenograft tumors. Kind of data set: Orthotopic SeAx xenograft CTCL mouse model: tumor growth and survival. The format is in vivo, NSG mice. Conditions: for tumor growth: ABT-199 100 mg/kg once oral, DMF 30 mg/kg i.p. once daily for 28 days; for overall survival: SeAx xenograft NSG mice; for animals still under follow-up (survival rate): day 30, one day after the end of the treatment phase. Here is the method: (§5) All animal experiments were in accordance with the approved guidelines of the local Governmental Committee for Animal Experimentation (RP Karlsruhe, Germany, license G282/15). Mice were maintained at a 12 h light-dark cycle with unrestricted diet and water. Under isoflurane inhalation anesthesia (1-1.5% in O2, 0.5 L/min), 3×10^6 SeAx cells suspended in 30 μl of PBS/Matrigel (1:1, v/v) were injected intradermally (i.d.) into the right flank of 6-7-week-old female NOD SCID gamma (NSG) mice recruited from the Center for Preclinical Research, DKFZ, Heidelberg and kept on Kliba diet 3307 with n=8 mice/group. When tumors reached palpable size (mean of 0.025 cm^3) mice were randomized and treated first as indicated once by oral gavage with ABT-199 dissolved in a vehicle of […], 30% polyethylenglycol 400 and 10% ethanol at a concentration of 100 mg/kg body weight, 10 μl/g mouse or vehicle alone as indicated. One day later, intraperitoneal (i.p.) treatment with DMF once daily for 28 days was started as indicated. The compound, dissolved at 3 mg/ml in 30° C. pre-warmed PBS, was given with 10 μl/g mouse at a dose of 30 mg/kg bodyweight. For control, PBS (10 μl/g mouse) was injected. Tumor volume was measured with a caliper 2-3 times a week and calculated according to the formula: V=(length (mm)×width (mm)^2)/2. Necropsies were taken when one tumor diameter reached 1.5 cm or when mice reached stop criterion of the German Society of Laboratory Animal Sciences (GV-SOLAS), here defined as survival. For tissue staining, the liver and a quarter of the tumor was fixed in 4% PBS-buffered formaldehyde and embedded into paraffin according to routine procedures.

In data set [7] the test system is SeAx xenograft tumors. Kind of data set: Histology and immunohistochemistry of SeAx xenograft tumors. The format is in vivo, NSG mice. As to conditions: for Ki-67 positivity (proliferation index) / caspase 3 cleavage within the xenograft tumors: immunohistochemistry, 400×. Here is the method:
as §5
Hematoxylin and eosin staining as well as immunohistochemistry were performed on 5 μm paraffin sections as described. For immunohistochemical stainings, paraffin-embedded tissue was sectioned into 5 μm slices. Ki-67 was detected in deparaffinized tissue specimens after antigen retrieval (20 min at boiling temperature in 10 mM sodium citrate pH 6.0), block of endogenous peroxidases in 3% H2O2 in PBS for 10 min, block in 100% goat serum for 1 h at room temperature (RT) and incubation overnight at 4° C. in a 1:250 dilution of anti-Ki-67 antibodies (NCL-Ki67p, Novacastra). Slides were incubated with appropriate horse-radish peroxidase (HRP)-coupled secondary antibody (1:200) for 1 h at RT, incubated with HRP substrate solution (DAB/H2O2, Sigma, Munich/Germany). Nuclei were counterstained with hematoxylin for 1 min. Mounting was in Eukitt (R. Langenbrinck, Teningen/Germany). Sections incubated without primary antibody were included as negative controls.
Immunohistochemical assessment of the tissue slides was performed by a dermatologist (JPN) and a pathologist (TA).
For microscopy, the following Nikon objective lenses were used (Nikon, Tokio, Japan): Nikon Plan Apoλ 2×/0.1, Nikon Plan Apoλ 20×/0.75. Microscopy was performed at 22° C. throughout with cryopreserved or paraffin sections. As fluorochromes phycoerythrin (PE), fluorescein-isothiocyanate (FITC) and DAPI were used for red, green and blue stainings, respectively. The micrographs were taken with a Nikon DS-Fi2 camera using the Nikon DS-L3 software.

In a further data set the target is Bcl-xL (Homo sapiens, UniProt Q07817). Conditions: inhibition of Bcl-xL; cited from earlier work.
The test system of the next data set is Bcl-2. Kind of data set: Western blot of Bcl-2 family protein levels upon NFκB inhibition. Type of data set: cell-based, human. As to conditions: J16, HH and SeAx cells.
Description: as §2, §3

Chain of Bcl-xL (Q07817 whole entry, species assumed): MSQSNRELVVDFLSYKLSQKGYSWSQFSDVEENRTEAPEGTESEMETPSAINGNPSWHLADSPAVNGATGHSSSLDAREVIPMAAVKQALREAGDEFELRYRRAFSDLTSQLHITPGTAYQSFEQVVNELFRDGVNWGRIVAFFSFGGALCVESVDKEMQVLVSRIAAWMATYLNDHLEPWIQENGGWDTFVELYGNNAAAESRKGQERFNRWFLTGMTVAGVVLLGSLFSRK

With `CC1(C)CCC(CN2CCN(c3ccc(C(=O)NS(=O)(=O)c4ccc(NCC5CCOCC5)c([N+](=O)[O-])c4)c(Oc4cnc5[nH]ccc5c4)c3)CC2)=C(c2ccc(Cl)cc2)C1` [ABT-199, 4-[4-[[2-(4-chlorophenyl)-4,4-dimethyl-1-cyclohexen-1-yl]methyl]-1-piperazinyl]-N-[[3-nitro-4-[[(tetrahydro-2H-pyran-4-yl)methyl]amino]phenyl]sulfonyl]-2-(1H-pyrrolo[2,3-b]pyridin-5-yloxy)-Benzamide], the specific cell death entry with primary CD4+ CTCL cells is “dose-dependent specific CD4+ T cell death after 24 h and 48 h with significantly higher rates in Sezary patients' cells than in those from healthy donors”. In addition, in [1], the cell death effect entry is “weak effect”. Also, the values for the cell death sensitivity entry with SeAx cells, with MyLa cells and in the data set with J16 cells were “high cell death sensitivity”, “high cell death sensitivity” and “by far attenuated cell death sensitivity”, respectively. In addition, the cell death response entry in the data set on HH cells is given as “barely any response”. Further, the “caspase 3 cleavage” value in [2] is recorded as “dose-dependent caspase 3 cleavage”; in [3] it was “had no effect”. For the same compound, in [4], the “green fluorescence (Bax/Bak interaction, PLA)” value is “significant increase in green fluorescence”. Further, the “Bax/Bak interaction (PLA)” value in data set [5] is recorded as “had no effect”. Besides, the tumor growth result with SeAx xenograft tumors [6] is “weak, but not significant decrease in tumor growth”. Also, the overall survival entry with SeAx xenograft tumors [6] was “no advantage with respect to survival”. In the data set with SeAx xenograft tumors [6], the “animals still under follow-up (survival rate)” value is given as 0%. Further, the “animals dropped out of the group” value in the data set with SeAx xenograft tumors [6] (within the first 10 days after monotreatment, ABT-199 100 mg/kg once by oral gavage, n=8) is given as 3/8. The “Ki-67 positivity (proliferation index)” value in the data set on SeAx xenograft tumors [7] is on record as “slightly reduced positivity for Ki-67”. For the same compound, the “caspase 3 cleavage within the xenograft tumors” value in the data set on SeAx xenograft tumors [7] is listed as “slightly increased caspase 3 cleavage”.

Consider `CC1(C)CCC(c2ccc(Cl)cc2)=C(CN2CCN(c3ccc(C(=O)NS(=O)(=O)c4ccc(N[C@H](CCN5CCOCC5)CSc5ccccc5)c(S(=O)(=O)C(F)(F)F)c4)cc3)CC2)C1` [ABT-263, (R)-4-(4-((4′-chloro-4,4-dimethyl-3,4,5,6-tetrahydro-[1,1′-biphenyl]-2-yl)methyl)piperazin-1-yl)-N-((4-((4-morpholino-1-(phenylthio)butan-2-yl)amino)-3-((trifluoromethyl)sulfonyl)phenyl)sulfonyl)benzamide], for which the specific cell death entry in the data set on primary CD4+ CTCL cells is “dose-dependent specific CD4+ T cell death after 24 h and 48 h with significantly higher rates in Sezary patients' cells than in those from healthy donors”. For the same compound, in data set [1], the cell death effect result is listed as “weak effect”. In addition, the cell death sensitivity result was “high cell death sensitivity” in the data set with SeAx cells, “high cell death sensitivity” with MyLa cells and “by far attenuated cell death sensitivity” with J16 cells. In addition, in the data set with HH cells, the cell death response entry is recorded as “barely any response”. In addition, the “number of circulating platelets” value on Bcl-xL is listed as “concentration-dependent decrease in the number of circulating platelets”.

Turning to `CN(C)CC[C@H](CSc1ccccc1)Nc1ccc(S(=O)(=O)NC(=O)c2ccc(N3CCN(Cc4ccccc4-c4ccc(Cl)cc4)CC3)cc2)cc1[N+](=O)[O-]` [ABT-737, 4-[4-[(4′-chloro[1,1′-biphenyl]-2-yl)methyl]-1-piperazinyl]-N-[[4-[[(1R)-3-(dimethylamino)-1-[(phenylthio)methyl]propyl]amino]-3-nitrophenyl]sulfonyl]-Benzamide], the “number of circulating platelets” value at Bcl-xL is reported as “concentration-dependent decrease in the number of circulating platelets”.

Take `COC(=O)/C=C/C(=O)OC` [DMF, Dimethyl (E)-butenedioate]: the “caspase 3 cleavage” value in data set [3] is recorded as “could induce significant caspase 3 cleavage”. Besides, the “protein levels of Bcl-2 or other anti-apoptotic Bcl-2 family members like Mcl-1” value in the data set with Bcl-2 is “no influence”. Further, the “Bax/Bak interaction (PLA)” value in [5] is recorded as “had no effect”. Further, in the data set with SeAx xenograft tumors [6], the tumor growth result is recorded as “weak, but not significant decrease in tumor growth”; the overall survival result is listed as “overall survival benefit”; the “animals still under follow-up (survival rate)” value is 13%. In addition, the “mitotic activity (mitosis figures in H&E specimens)” value with SeAx xenograft tumors [7] (200× magnification) is “significant decrease in mitotic activity”. Besides, in the data set with SeAx xenograft tumors [7], the “Ki-67 positivity (proliferation index)” value is “slightly reduced positivity for Ki-67” and the “caspase 3 cleavage within the xenograft tumors” value is reported as “slightly increased caspase 3 cleavage”.
